Measured values reported in PMC10987949, “Inhibition of HIV-1 release by ADAM metalloproteinase inhibitors” (Frontiers in Microbiology, 2024).

How the values were obtained:
[1] = tested on: HIV; parameters: method as in Kononchik et al., 2018; conditions: ref Kononchik et al., 2018; cited from earlier work
[2] = tested on: ADAM9, 10 and 17 mRNA; experiment: RT-PCR of ADAM9, 10 and 17 mRNA in HIV-1BAL infected PBMC; assay type: cell-based, human; conditions: day 3 and 6 of infected samples
Experimental: RT-PCR using ADAM9, 10 and 17 primer probes was assayed using TaqMan primer/probe sets from ThermoFisher with a 50 ng cDNA template as described previously ([Chun et al., 2013]; [Kononchik et al., 2018]). The following TaqMan 20X Gene Expression Assay probes (Dye: FAM-MGB) were used: ADAM9 (Hs00177638_m1), ADAM10 (Hs00153853_m1), ADAM17 (Hs01041915_m1). Expression Assay standard probes (Dye: VIC-MGB) for β-Actin (Hs01060665_g1) or RNase P/RPPH1 (4403328) were used as gene expression controls. Briefly, HIV infected or uninfected cells from triplicate experiments were washed 3x in PBS and lysed for RNA isolation using RNeasy mini kit (QIAGEN corp). The corresponding cDNA samples were prepared using either TaqMan microRNA reverse transcription kit or Invitrogen High-Capacity cDNA reverse transcription kit (Thermo Fisher). Samples were run in duplicate across triplicate experiments on an ABI 7300 Real-Time PCR System (Applied Biosystems) with a threshold of 0.2. Relative gene expression was calculated using the 2^-ΔCt method and normalized to β-Actin or RNaseP as the endogenous controls. All statistical analyses were carried out using the software Prism 8 (GraphPad Software, Inc). Western blot analyses were used to detect the mature active form of ADAMs ([Pereira Vatanabe et al., 2021]). […]

[3] = tested on: HIV-1LAI; experiment: TEM of immunogold labeled CD62L on HIV-1LAI infected PBMC; assay type: cell-based
Experimental: For immunogold labeling, ~10^6 cells were washed with 2 mL PBS, gently centrifuged at 250 g for 5 min, resuspended in 100 μL of labeling buffer (PBS with 1% BSA), and incubated with 10 μg of mouse anti-human CD62L (clone FMC46, Thermofisher) for 1 h on ice. After removal of the primary antibody and wash, cells were incubated with 10 μg of secondary goat anti-mouse IgG H&L conjugated to 10 nm gold nanoparticles (Electron Microscopy Sciences) for 1 h on ice, then washed and fixed in 2.5% glutaraldehyde with 0.1 M sodium cacodylate at pH 7.4. Specimens for transmission electron microscopy (TEM) were fixed with 2.5% glutaraldehyde in 0.1 M Sorenson’s buffer. Samples were post-fixed 1 h with 0.5% osmium tetroxide/0.8% potassium ferricyanide, 1 h with 1% tannic acid and overnight with 1% uranyl acetate at 4°C. Samples were dehydrated with a graded ethanol series and embedded in Spurr’s resin. Thin sections were cut with a Leica UCT ultramicrotome (Vienna, Austria) stained with 1% uranyl acetate and Reynold’s lead citrate prior to viewing at 80 kV on a Hitachi 7500 transmission electron microscope (Hitachi-High Technologies, Tokyo, Japan). Approximately 100 images were acquired with an AMT digital camera system (AMT, Chazy, NY) from each sample on sections containing HIV virions. HIV virions are identified as ~100 nm sized particles with visible membrane enclosed capsid.

## CNC(=O)[C@H](Cc1ccccc1)NC(=O)[C@H](CC(C)C)[C@H](CSc1cccs1)C(=O)NO [BB-94, Batimastat]
[1]
  effect on HIV cell-to-cell transfer infections: effectively suppressed HIV cell-to-cell transfer infections
[2]
  HIV-1BAL induced increase of ADAM9, 10, 17 mRNA: increase was not observed
[3]; 50 μM, count in TEM images
  gold particles bound to cell surface virions: 63
  gold particles bound to released virions: 17
[3]; in presence of compound, DMSO 45%
  fraction of virion-associated gold particles on CD62L-tethered (budding) virions: 79%
[3]; in presence of compound, DMSO 55%
  fraction of virion-associated gold particles on released virions: 21%
